Here are results for 2 compounds from patent publication US20090087871A1, “Method for Identifying PDE5-Modulators” (Atlanta Pharma AG, priority 2004, published 2009).

“Also recorded” adds a separate entry of the source.

In one assay the test system is PDE5/CyaB1-chimera. Description: adenylate cyclase activity of PDE5/CyaB1-chimera (conversion of [α-32P]-ATP to cAMP). As to conditions: in the presence of cGMP; FIG. 6. In kind it is biochemical, human.
A further assay deals with PDE5 (Homo sapiens, UniProt O76074). To be noted: cited from earlier work.

Procedure for PDE5/CyaB1-chimera: The adenylate cyclase activity of the PDE5/CyaB1-chimera is measured with and without the test substance. […] The incubation time should be between 1 and 120 min, the incubation temperature between 20 and 45° C., the Mg^2+-cofactor concentration between 1 and 20 mM (corresponding amounts of Mn^2+ may also be used as a cofactor) and the ATP concentration between 0.5 μM and 5 mM. An increase in the conversion with the substance compared to without the substance indicates a GAF-agonistic effect. If conversion is inhibited by adding the substance, this indicates a GAF-antagonistic effect of the substance. A GAF antagonism can also be measured via blockage of activation of PDE5/CyaB1-chimera by the native GAF ligand cGMP. In addition, the conversion at rising or fixed cGMP concentration is measured with and without the substance. If the conversion rates with the substance are below those without the substance, this indicates GAF antagonism of the substance. […]
The protein samples and the cocktail are measured in 1.5 mL reaction containers on ice, the reaction with ATP is started, and incubation is carried for 10 minutes at 37° C.
Each test mixture is carried in duplicate. […] With a test mixture without substance and cGMP, the basal enzyme activity is determined. […]
The inhibition or activation of the enzyme by the substance is calculated as % basal value according to the following formula: […]

Regarding `CCCc1nn(C)c2c(=O)[nH]c(-c3cc(S(=O)(=O)N4CCN(C)CC4)ccc3OCC)nc12` [Sildenafil], the “PDE5-antagonistic effect via binding to the GAF domain of PDE5” value in the assay on PDE5/CyaB1-chimera was “None of the measured PDE5 inhibitors shows a PDE5-antagonistic effect; also recorded: None of the measured PDE5 inhibitors showed a PDE5-antagonistic action”.
Take `Nc1nc2c(ncn2[C@@H]2O[C@@H]3COP(=O)(O)O[C@H]3[C@H]2O)c(=O)[nH]1` [cGMP]: the “increase of the activity of PDE5 via cGMP binding to the GAF tandem” value at PDE5 is listed as “tenfold”.
